Consider two compounds from patent US20250302080A1, “SWEETNESS AND/OR FLAVOR ENHANCER” (AJINOMOTO CO., INC., priority 2022, published 2025).

Assay [1] is described as follows: Sensory evaluation of sweetness intensity in RebA solution, four reference samples (Experimental Examples 17-19). The settings on record: for concentration at which a sweetness-enhancing effect was confirmed: added alone, 3.0 points or more. The protocol:
A negative control RebA solution (0.073 wt % RebA solution) was prepared by dissolving RebA in filtered water.
(§1) A sensory evaluation of sweetness intensity was performed for each sample by a panel of four experts according to the following evaluation criteria.
Sweetness intensity was evaluated by 0.0 to 10.0 points based on the following reference samples (negative control (hereinafter referred to as NC) (0.0 point); reference 1 (hereinafter referred to as R1) (3.2 points), reference 2 (hereinafter referred to as R2) (5.0 points); reference 3 (hereinafter referred to as R3) (10.0 points)). The average score (rounded to two decimal places) of each expert panelist was calculated. An average score of 3.0 points or more was considered to be functional. • NC (0.0 point): 0.073 wt % RebA solution (solvent: filtered water) • R1 (3.2 points): 0.073 wt % RebA solution (solvent: filtered water)+decanoic acid (10 ppb) • R2 (5.0 points): 0.077 wt % RebA solution (solvent: filtered water) • R3 (10.0 points): 0.080 wt % RebA solution (solvent: filtered water)
A sensory evaluation of sweetness intensity was performed for each sample by a panel of four experts according to the same evaluation criteria as in Experimental Example 17.

Assay [2] can be described thus: Sensory evaluation of sweetness intensity in sucrose solution (Experimental Examples 25-27). The protocol: A negative control sucrose solution (0.7 wt % sucrose solution) was prepared by dissolving sucrose in filtered water.
as §1
Sweetness intensity was evaluated by 0.0 to 10.0 points based on the following reference samples (negative control (hereinafter referred to as NC) (0.0 point); reference 1 (hereinafter referred to as R1) (3.0 points), reference 2 (hereinafter referred to as R2) (5.0 points); reference 3 (hereinafter referred to as R3) (10.0 points)). The average score (rounded to two decimal places) of each expert panelist was calculated. An average score of 3.0 points or more was considered to be functional. • NC (0.0 point): 7.0 wt % sucrose solution (solvent: filtered water) • R1 (3.0 points): 7.3 wt % sucrose solution (solvent: filtered water) • R2 (5.0 points): 7.5 wt % sucrose solution (solvent: filtered water) • R3 (10.0 points): 8.0 wt % sucrose solution (solvent: filtered water)
A sensory evaluation of sweetness intensity was performed for each sample by a panel of four experts according to the same evaluation criteria as in Experimental Example 25.

Assay [3] can be described thus: Sensory evaluation of sweetness intensity in RebM solution (Experimental Examples 20-21). The protocol:
A negative control RebM solution (0.063 wt % RebM solution) was prepared by dissolving RebM in filtered water.
as §1
Sweetness intensity was evaluated by 0.0 to 10.0 points based on the following reference samples (negative control (hereinafter referred to as NC) (0.0 point); reference 1 (hereinafter referred to as R1) (3.0 points), reference 2 (hereinafter referred to as R2) (5.0 points); reference 3 (hereinafter referred to as R3) (10.0 points)). The average score (rounded to two decimal places) of each expert panelist was calculated. An average score of 3.0 points or more was considered to be functional. • NC (0.0 point): 0.063 wt % RebM solution (solvent: filtered water) • R1 (3.0 points): 0.063 wt % RebM solution (solvent: filtered water)+dodecanoic acid (1 ppb) • R2 (5.0 points): 0.066 wt % RebM solution (solvent: filtered water) • R3 (10.0 points): 0.069 wt % RebM solution (solvent: filtered water)
A sensory evaluation of sweetness intensity was performed for each sample by a panel of four experts according to the same evaluation criteria as in Experimental Example 20.

Assay [4] in a line: Sensory evaluation of sweetness intensity in aspartame solution, four reference samples (Experimental Example 22). The procedure:
A negative control aspartame solution (0.063 wt % aspartame solution) was prepared by dissolving aspartame in filtered water.
as §1
Sweetness intensity was evaluated by 0.0 to 10.0 point based on the following reference samples (negative control (hereinafter referred to as NC) (0.0 point); reference 1 (hereinafter referred to as R1) (3.2 points), reference 2 (hereinafter referred to as R2) (5.0 points); reference 3 (hereinafter referred to as R3) (10.0 points)). The average score (rounded to two decimal places) of each expert panelist was calculated. An average score of 3.0 points or more was considered to be functional. • NC (0.0 point): 0.063 wt % aspartame solution (solvent: filtered water) • R1 (3.2 points): 0.063 wt % aspartame solution (solvent: filtered water)+decanoic acid (10 ppb) • R2 (5.0 points): 0.066 wt % aspartame solution (solvent: filtered water) • R3 (10.0 points): 0.069 wt % aspartame solution (solvent: filtered water)

Assay [5] in a line: Sensory evaluation of sweetness intensity in sucralose solution (Experimental Examples 23-24). The settings on record: for sweetness intensity: average score. The protocol:
A negative control sucralose solution (0.0140 wt % sucralose solution) was prepared by dissolving sucralose in filtered water.
as §1
Sweetness intensity was evaluated by 0.0 to 10.0 point based on the following reference samples (negative control (hereinafter referred to as NC) (0.0 point); reference 1 (hereinafter referred to as R1) (3.0 points), reference 2 (hereinafter referred to as R2) (5.0 points); reference 3 (hereinafter referred to as R3) (10.0 points)). The average score (rounded to two decimal places) of each expert panelist was calculated. An average score of 3.0 points or more was considered to be functional. • NC (0.0 point): 0.0140 wt % sucralose solution (solvent: filtered water) • R1 (3.0 points): 0.0164 wt % sucralose solution (solvent: filtered water) • R2 (5.0 points): 0.0180 wt % sucralose solution (solvent: filtered water) • R3 (10.0 points): 0.0220 wt % sucralose solution (solvent: filtered water)
A sensory evaluation of sweetness intensity was performed for each sample by a panel of four experts according to the same evaluation criteria as in Experimental Example 23.

Structures are written as SMILES.

`O=C1C[C@@H](c2ccc(O)cc2)Oc2cc(O)cc(O)c21` [naringenin]: the “concentration at which a sweetness-enhancing effect was confirmed” value in assay [1] was not below 10 ppm; in assay [2] (added alone, 3.0 points or more) it was not below 15 ppm. Also, the sweetness intensity in assay [1] (naringenin alone at 1 ppm) worked out at 1.8 points; in assay [1] (naringenin alone at 5 ppm), 2.5 points; in assay [1] (naringenin alone at 10 ppm), 3.3 points; in assay [1] (naringenin alone at 15 ppm) it was 4.1 points; in assay [1] (naringenin alone at 30 ppm), 5.0 points; in assay [1] (naringenin alone at 50 ppm), 5.4 points. In addition, the sweetness intensity in assay [2] (naringenin alone at 1 ppm) came to 1.1 points; in assay [2] (naringenin alone at 5 ppm), 1.7 points; in assay [2] (naringenin alone at 10 ppm), 2.6 points; in assay [2] (naringenin alone at 15 ppm), 3.6 points; in assay [2] (naringenin alone at 30 ppm) it was 4.6 points; in assay [2] (naringenin alone at 50 ppm), 5.8 points.

Regarding `CCCCCCCCCCCC(=O)O` [dodecanoic acid], the sweetness intensity turned out to be 0.6 points in assay [1] (acid added alone at 0.001 ppb); 1.3 points in assay [1] (acid added alone at 0.01 ppb); 2.3 points in assay [1] (acid added alone at 0.1 ppb); 4.2 points in assay [1] (acid added alone at 1 ppb); 5.0 points in assay [1] (acid added alone at 10 ppb); 5.7 points in assay [1] (acid added alone at 100 ppb). For the same compound, the sweetness intensity in assay [1] (acid added alone at 1000 ppb) came to 6.0 points; in assay [1] (acid added alone at 10000 ppb) it was 6.0 points; in assay [3] (acid added alone at 0.001 ppb) it was 0.8 points; in assay [3] (acid added alone at 0.01 ppb), 1.7 points; in assay [3] (acid added alone at 0.1 ppb), 2.5 points; in assay [3] (acid added alone at 1 ppb), 3.0 points. Moreover, the sweetness intensity in assay [3] (acid added alone at 10 ppb) is given as 5.0 points; in assay [3] (acid added alone at 100 ppb), 4.6 points; in assay [3] (acid added alone at 1000 ppb), 4.7 points; in assay [3] (acid added alone at 10000 ppb) it was 4.8 points; in assay [4] (acid added alone at 0.001 ppb), 1.7 points; in assay [4] (acid added alone at 0.01 ppb), 2.2 points. The sweetness intensity turned out to be 2.7 points in assay [4] (acid added alone at 0.1 ppb); 3.3 points in assay [4] (acid added alone at 1 ppb); 4.2 points in assay [4] (acid added alone at 10 ppb); 4.9 points in assay [4] (acid added alone at 100 ppb); 5.5 points in assay [4] (acid added alone at 1000 ppb); 6.1 points in assay [4] (acid added alone at 10000 ppb). Also, the sweetness intensity is reported as 1.0 points in assay [5] (added alone at 0.001 ppb to 0.0140 wt % sucralose solution); 1.6 points in assay [5] (added alone at 0.01 ppb to 0.0140 wt % sucralose solution); 2.0 points in assay [5] (added alone at 0.1 ppb to 0.0140 wt % sucralose solution); 2.5 points in assay [5] (added alone at 1 ppb to 0.0140 wt % sucralose solution); 3.0 points in assay [5] (added alone at 10 ppb to 0.0140 wt % sucralose solution); 3.5 points in assay [5] (added alone at 100 ppb to 0.0140 wt % sucralose solution). The sweetness intensity in assay [5] (added alone at 1000 ppb to 0.0140 wt % sucralose solution) is on record as 3.9 points; in assay [5] (added alone at 10000 ppb to 0.0140 wt % sucralose solution), 3.7 points. Besides, the “concentration at which a sweetness-enhancing effect was confirmed” value is on record as not below 1 ppb in assay [1] and not below 10 ppb in assay [5] (sucralose solution, added alone, 3.0 points or more).
